# According to patent publication US20230141403A1 (Hoffmann-La Roche Inc., priority 2020, published 2023):
# Counter-ions that a name gives are not always drawn. Like-named read-outs stand apart in the source and are kept apart here.
# System: Acinetobacter baumannii ATCC17978
# Assay: Antimicrobial susceptibility testing: 90% growth inhibitory concentration (IC90) determination
# Format: cell-based
# Procedure: Antimicrobial Susceptibility Testing:
# 90% Growth Inhibitory Concentration (IC90) Determination
# The in vitro antimicrobial activity of the compounds was determined according to the following procedure:
# The assay used a 10-points Iso-Sensitest broth medium to measure quantitatively the in vitro activity of the compounds against Acinetobacter baumannii ATCC17961 or ATCC17978.
# Stock compounds in DMSO were serially twofold diluted (e.g. range from 50 to 0.097 μM final concentration) in 384 wells microtiter plates and inoculated with 49 μl the bacterial suspension in Iso-Sensitest medium to have a final cell concentration of ˜5×10^(5) CFU/ml in a final volume/well of 50 ul/well. Microtiter plates were incubated at 35±2° C.
# Bacterial cell growth was determined with the measurement of optical density at λ=600 nm each 20 minutes over a time course of 16h. Growth inhibition was calculated during the logarithmic growth of the bacterial cells with determination of the concentration inhibiting 50% (IC50) and 90% (IC90) of the growth.
# Table 1 provides the 90% growth inhibitory concentrations (IC90) in micromoles per liter of the compounds of present invention obtained against the strain Acinetobacter baumannii ATCC17978.
# [1] = ATCC17978, 90% growth inhibitory concentration, Iso-Sensitest broth, optical density at 600 nm over 16h, 35±2° C., read-out: AB ATCC 17978 IC90
# [2] = ATCC17978, 16 h, read-out: AB ATCC 17978 IC90 (uM)
IC90 [1] [µM],SMILES,IC90 [2] [µM]
0.64,"COc1ccc(-c2cnc3c(Nc4ccc(NC(=O)COCCN)cc4)nccn23)cc1Cl [Example 14, 2-(2-aminoethoxy)-N-[4-[[3-(3-chloro-4-methoxy-phenyl)imidazo [1,2-a]pyrazin-8-yl]amino]phenyl] acetamide; 2,2,2-trifluoroacetic acid]",–
0.98,"COc1ccc(-c2cnc3c(Nc4ccc(S(C)(=O)=O)cc4)nccn23)cc1 [Example 52, 3-(4-Methoxyphenyl)-N-(4-(methylsulfonyl)phenyl)imidazo[1,2-a]pyrazin-8-amine]",–
0.63,"COc1ccc(-c2cnc3c(Nc4ccc(S(C)(=O)=O)c(Cl)c4)nccn23)cc1 [Example 81, N-(3-chloro-4-(methylsulfonyl)phenyl)-3-(4-methoxyphenyl) imidazo [1,2-a]pyrazin-8-amine]",–
0.14,"O=C1CCCN1c1ccc(Nc2nccn3c(-c4ccc(OC(F)F)c(F)c4)cnc23)cc1 [Example 57, 1-(4-((3-(4-(difluoromethoxy)-3-fluorophenyl)imidazo [1,2-a]pyrazin-8-yl)amino)phenyl)pyrrolidin-2-one]",–
0.26,"COc1ccc(-c2cnc3c(Nc4ccc(N5CCCC5=O)c(C)c4)nccn23)cc1 [Example 58, 1-(4-((3-(4-methoxyphenyl)imidazo[1,2-a]pyrazin-8-yl)amino)-2-methylphenyl)pyrrolidin-2-one]",–
0.89,"COc1ccc(-c2cnc3c(Nc4ccc(NC(C)=O)c(Cl)c4)nccn23)cc1Cl [Example 46, N-(2-chloro-4-((3-(3-chloro-4-methoxyphenyl)imidazo[1,2-a]pyrazin-8-yl)amino)phenyl)acetamide]",–
0.11,"COc1ccc(-c2cnc3c(Nc4ccc(NC(C)=O)c(C)c4)nccn23)cc1 [Example 20, N-{4-[3-(4-Methoxy-phenyl)-imidazo[1,2-a]pyrazin-8-ylamino]-2-methyl-phenyl}-acetamide]",–
–,"COc1ccc(-c2cnc3c(Nc4ccc5c(c4)CCCC(=O)N5)nccn23)cc1F [Example 5, 7-[[3-(3-fluoro-4-methoxy-phenyl)imidazo[1,2-a]pyrazin-8-yl]amino]-1,3,4,5-tetrahydro-1-benzazepin-2-one hydrochloride]",0.88
0.73,"CNC(=O)c1cc(Nc2nccn3c(-c4ccc(OC)cc4)cnc23)ccc1Cl [Example 76, 2-chloro-5-((3-(4-methoxyphenyl)imidazo[1,2-a]pyrazin-8-yl)amino)-N-methylbenzamide]",–
0.74,COc1ccc(-c2cnc3c(Nc4ccc(CO)c(C)c4)nccn23)cc1 [Example 120],–
0.34,"CC(=O)Nc1ccc(Nc2nccn3c(-c4ccc(F)c(F)c4)cnc23)cc1C [Example 85, N-(4-((3-(3,4-difluorophenyl)imidazo[1,2-a]pyrazin-8-yl)amino)-2-methylphenyl) acetamide]",–
–,COc1ccc(-c2cnc3c(Nc4ccc(N(C)C(C)=O)cc4)nccn23)cc1Cl [Example 7],0.86
0.81,"CNS(=O)(=O)c1ccc(Nc2nccn3c(-c4ccc(OC)c(Cl)c4)cnc23)cc1 [Example 91, 4-((3-(3-chloro-4-methoxyphenyl)imidazo[1,2-a]pyrazin-8-yl)amino)-N-methylbenzenesulfonamide]",–
0.24,"CCCCC(=O)NCCOCC(=O)Nc1ccc(Nc2nccn3c(-c4ccc(OC)cc4)cnc23)cc1C [Example 90, N-(2-(2-((4-((3-(4-methoxyphenyl)imidazo[1,2-a]pyrazin-8-yl)amino)-2-methylphenyl)amino)-2-oxoethoxy)ethyl)pentanamide]",–
–,"COc1ccc(-c2cnc3c(Nc4ccc(NC(=O)COCCOCCN)cc4)nccn23)cc1Cl [Example 13, 2-[2-(2-aminoethoxy)ethoxy]-N-[4-[[3-(3-chloro-4-methoxy-phenyl)imidazo[1,2-a]pyrazin-8-yl]amino]phenyl]acetamide; 2,2,2-trifluoroacetic acid]",0.81
0.33,"O=C1COCCN1c1ccc(Nc2nccn3c(-c4ccc(OC(F)F)cc4)cnc23)cc1 [Example 4, 4-[4-[[3-[4-(difluoromethoxy)phenyl]imidazo[1,2-a]pyrazin-8-yl]amino]phenyl]morpholin-3-one]",–
0.3,"COc1ccc(-c2cnc3c(Nc4ccc(NC(=O)CN5CCNCC5)c(C)c4)nccn23)cc1Cl [Example 49, N-(4-((3-(3-chloro-4-methoxyphenyl)imidazo[1,2-a]pyrazin-8-yl)amino)-2-methylphenyl)-2-(piperazin-1-yl)acetamide]",–
0.75,"C#CCOc1ccc(-c2cnc3c(Nc4ccc(NC(C)=O)cc4)nccn23)cc1 [Example 65, N-(4-((3-(4-(prop-2-yn-1-yloxy)phenyl)imidazo[1,2-a]pyrazin-8-yl)amino)phenyl)acetamide]",–

IC90 [1] [µM],SMILES,IC90 [2] [µM]
0.89,"COc1ccc(-c2cnc3c(Nc4ccc(NC(=O)CO)cc4)nccn23)cc1F [Example 12, N-[4-[[3-(3-fluoro-4-methoxy-phenyl)imidazo [1,2-a]pyrazin-8-yl]amino]phenyl]-2-hydroxy-acetamide; 2,2,2-trifluoroacetic acid]",–
0.087,"COc1ccc(-c2cnc3c(Nc4ccc(NC(C)=O)c(C)c4)nccn23)cc1Cl [Example 11, N-[4-[[3-(3-chloro-4-methoxy-phenyl)imidazo [1,2-a]pyrazin-8-yl]amino]-2-methyl-phenyl]acetamide; 2,2,2-trifluoroacetic acid]",–
0.26,"CC(=O)Nc1ccc(Nc2nccn3c(-c4ccc(F)c(F)c4F)cnc23)cc1C [Example 87, N-(2-methyl-4-((3-(2,3,4-trifluorophenyl)imidazo[1,2-a]pyrazin-8-yl)amino)phenyl) acetamide]",–
0.52,"CC(=O)Nc1ccc(Nc2nccn3c(-c4ccc(OC(F)F)c(Cl)c4)cnc23)cc1 [Example 41, N-(4-((3-(3-chloro-4-(difluoromethoxy)phenyl)imidazo[1,2-a]pyrazin-8-yl)amino)phenyl)acetamide]",–
0.13,CC(=O)Nc1ccc(Nc2nccn3c(-c4ccc(OC(F)F)cc4)cnc23)cc1C [Example 40],–
0.33,"COc1ccc(-c2cnc3c(Nc4ccc(N5CCCC5=O)cc4)nccn23)cc1 [Example 18, 1-[4-[[3-(4-methoxyphenyl)imidazo[1,2-a]pyrazin-8-yl]amino]phenyl]pyrrolidin-2-one]",–
0.26,"COc1ccc(-c2cnc3c(Nc4ccc(NC(C)=O)c(C)c4)nccn23)c(Cl)c1 [Example 86, N-(4-((3-(2-chloro-4-methoxyphenyl)imidazo [1,2-a]pyrazin-8-yl)amino)-2-methylphenyl)acetamide]",–
0.83,"CC(=O)Nc1ccc(Nc2nccn3c(-c4ccc(Cl)cc4)cnc23)cc1 [Example 42, N-(4-((3-(4-chlorophenyl)imidazo[1,2-a]pyrazin-8-yl)amino)phenyl)acetamide]",–
0.84,"COc1ccc(-c2cnc3c(Nc4ccc(NC(=O)CN5CCOCC5)cc4)nccn23)cc1Cl [Example 36, N-(4-((3-(3-chloro-4-methoxyphenyl)imidazo[1,2-a]pyrazin-8-yl)amino)phenyl)-2-morpholinoacetamide]",–
0.54,"COc1ccc(-c2cnc3c(Nc4ccc(Cn5ccnc5)cc4)nccn23)cc1 [Example 117, N-[4-(imidazol-1-ylmethyl)phenyl]-3-(4-methoxyphenyl)imidazo[1,2-a]pyrazin-8-amine]",–
0.33,"CC(=O)Nc1ccc(Nc2nccn3c(-c4ccc(OCC#N)cc4)cnc23)cc1C [Example 88, N-(4-((3-(4-(cyanomethoxy)phenyl)imidazo[1,2-a]pyrazin-8-yl)amino)-2-methylphenyl) acetamide]",–
0.76,"CCN(CC)C(=O)CNS(=O)(=O)c1ccc(Nc2nccn3c(-c4ccc(OC)cc4)cnc23)cc1 [Example 80, N,N-diethyl-2-(4-((3-(4-methoxyphenyl)imidazo[1,2-a]pyrazin-8-yl)amino)phenylsulfonamido) acetamide]",–
0.55,"COc1ccc(-c2cnc3c(Nc4ccc(NC(C)=O)cc4)nccn23)c(F)c1 [Example 34, N-(4-((3-(2-fluoro-4-methoxyphenyl)imidazo[1,2-a]pyrazin-8-yl)amino)phenyl)acetamide]",–
0.25,"O=C1OCCN1c1ccc(Nc2nccn3c(-c4ccc(OC(F)F)cc4)cnc23)cc1 [Example 2, 3-[4-[[3-[4-(difluoromethoxy)phenyl]imidazo[1,2-a]pyrazin-8-yl]amino]phenyl]oxazolidin-2-one]",–
0.4,"COc1ccc(-c2cnc3c(Nc4ccc(NC(C)=O)cc4)nccn23)cc1F [Example 16, N-(4-((3-(3-fluoro-4-methoxyphenyl)imidazo[1,2-a]pyrazin-8-yl)amino)phenyl)acetamide]",–
0.77,"COCC(=O)Nc1ccc(Nc2nccn3c(-c4ccc(OC)cc4)cnc23)cc1 [Example 19, 2-Methoxy-N-{4-[3-(4-methoxy-phenyl)-imidazo[1,2-a]pyrazin-8-ylamino]-phenyl}-acetamide]",–
0.25,"Cc1cc(Nc2nccn3c(-c4ccc(OC(F)F)c(F)c4)cnc23)ccc1N1CCCC1=O [Example 56, 1-(4-((3-(4-(difluoromethoxy)-3-fluorophenyl)imidazo [1,2-a]pyrazin-8-yl)amino)-2-methylphenyl)pyrrolidin-2-one]",–
0.36,"CC(=O)Nc1ccc(Nc2nccn3c(-c4ccc(F)cc4)cnc23)cc1C [Example 53, N-(4-((3-(4-fluorophenyl)imidazo[1,2-a]pyrazin-8-yl)amino)-2-methylphenyl)acetamide]",–
